This note sets out measurements from US20060264460A1 (Wyeth, priority 2005, published 2006).

Structures are written as SMILES. A value given as a limit tells only on which side of the number the result lay.

T1 sequence (P41279 30-398): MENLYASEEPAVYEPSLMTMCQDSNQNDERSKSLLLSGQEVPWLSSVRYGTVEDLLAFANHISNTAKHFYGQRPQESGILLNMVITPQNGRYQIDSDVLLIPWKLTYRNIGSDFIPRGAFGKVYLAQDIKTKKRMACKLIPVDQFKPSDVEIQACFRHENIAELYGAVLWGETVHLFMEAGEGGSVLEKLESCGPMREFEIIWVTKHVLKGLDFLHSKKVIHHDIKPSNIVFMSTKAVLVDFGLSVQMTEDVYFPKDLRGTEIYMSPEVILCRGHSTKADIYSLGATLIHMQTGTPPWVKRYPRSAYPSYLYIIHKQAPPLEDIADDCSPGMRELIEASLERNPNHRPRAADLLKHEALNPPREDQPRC

One experiment addresses T1, human Cot/Tpl2 kinase (Homo sapiens, UniProt P41279).
T1 construct: human Cot/Tpl2 kinase construct encoding residues 30-398; 6His (N); made in house; host or cells: Sf9 insect cells, baculovirus system (BD Biosciences)
Briefly: Tpl2/Cot kinase assay: GST-MEK1 phosphorylation detected by ELISA (DELFIA Eu). To be noted: 0.4 nM Tpl2, 35 nM GST-MEK1, 50 uM ATP, 1 h at 30° C. The format is biochemical. Put shortly:
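His-tagged human Tpl2 from Sf9 cells, Ni-affinity and size-exclusion purified (monomer). 0.4 nM Tpl2 with 35 nM GST-MEK1, 50 uM ATP, MOPS pH 7.2, 1% DMSO, 1 h at 30° C; EDTA stop. MEK1 Ser217/221 phosphorylation detected by anti-phospho-MEK1 and Eu-labelled secondary ELISA; IC50 fitted.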
`N#Cc1cnc2ccc(NCc3ccc[n+]([O-])c3)cc2c1Nc1ccc(F)c(Cl)c1` [Example 30, 4-(3-Chloro-4-fluoro-phenylamino)-6-[(1-oxy-pyridin-3-ylmethyl)-amino]-quinoline-3-carbonitrile] came in with a 50% inhibitory concentration (IC50) of 130 nM.
`N#Cc1cnc2c(Br)cc(NC(=O)Cc3cnc[nH]3)cc2c1Nc1ccc(F)c(Cl)c1` [Example 117, N-(8-bromo-4-(3-chloro-4-fluorophenylamino)-3-cyanoquinolin-6-yl)-2-(1H-imidazol-5-yl)acetamide] gave a 50% inhibitory concentration (IC50) of more than 40000 nM.
In turn, `Cc1cc(NCCN2CCOCC2)cc2c(Nc3cccc(Br)c3)c(C#N)cnc12` [Example 131, 4-(3-bromophenylamino)-8-methyl-6-(2-morpholinoethylamino)quinoline-3-carbonitrile] displayed an IC50 of 16000 nM.
The same measure, in the same setting: for `Cc1noc(Nc2c(C#N)cnc3ccc(NCc4cnc[nH]4)cc23)c1C` [Example 262, 4-[(3,4-dimethylisoxazol-5-yl)amino]-6-[(1H-imidazol-5-ylmethyl)amino]quinoline-3-carbonitrile] the value was 2200 nM; for `N#Cc1cnc2ccc(NCc3ccoc3)cc2c1Nc1ccc(F)c(Cl)c1` [Example 5, 4-(3-Chloro-4-fluoro-phenylamino)-6-[(furan-3-ylmethyl)-amino]-quinoline-3-carbonitrile], 370 nM; for `COCCOc1ccc(Br)cc1CNc1ccc2ncc(C#N)c(Nc3ccc(F)c(Cl)c3)c2c1` [Example 48, 6-[5-Bromo-2-(2-methoxy-ethoxy)-benzylamino]-4-(3-chloro-4-fluoro-phenylamino)-quinoline-3-carbonitrile], 1500 nM.
Turning to `CN(C)C(=O)c1cc(NCc2cccc(C#N)c2)cc2c(Nc3ccc(F)c(Cl)c3)c(C#N)cnc12` [Example 85, 4-(3-chloro-4-fluorophenylamino)-3-cyano-6-(3-cyanobenzylamino)-N,N-dimethylquinoline-8-carboxamide], the IC50 stood at 670 nM.
In turn, `CN(C)C(=O)c1cc(NCc2ccco2)cc2c(Nc3ccc(F)c(Cl)c3)c(C#N)cnc12` [Example 84, 4-(3-chloro-4-fluorophenylamino)-3-cyano-6-(furan-2-ylmethylamino)-N,N-dimethylquinoline-8-carboxamide] came in with an IC50 of more than 40000 nM.
With `CSc1cc(NCc2cnc[nH]2)cc2c(Nc3ccc(F)c(Cl)c3)c(C#N)cnc12` [Example 287, 4-[(3-chloro-4-fluorophenyl)amino]-6-[(1H-imidazol-5-ylmethyl)amino]-8-(methylthio)quinoline-3-carbonitrile], the IC50 stood at 340 nM. That is a sub-micromolar value.
`N#Cc1cnc2ccc(NCc3cccc(Oc4ccccc4)c3)cc2c1Nc1ccc(F)c(Cl)c1` [Example 150, 6-(3-phenoxybenzylamino)-4-(3-chloro-4-fluorophenylamino)quinoline-3-carbonitrile] displayed an IC50 of 6400 nM.
The compound `Cc1cc(NCc2cccnc2)cc2c(Nc3cccc(Br)c3)c(C#N)cnc12` [Example 126, 4-(3-bromophenylamino)-8-methyl-6-(pyridin-3-ylmethylamino)quinoline-3-carbonitrile] displayed an IC50 of 3300 nM.
On to `Cn1ccnc1CNc1ccc2ncc(C#N)c(NC3CCCCCC3)c2c1` [Example 249, 4-(cycloheptylamino)-6-{[(1-methyl-1H-imidazol-2-yl)methyl]amino}quinoline-3-carbonitrile], for which the IC50 was determined as 380 nM.
Consider `N#Cc1cnc2c(Cl)cc(NCc3cn(CS(=O)(=O)N4CCOCC4)nn3)cc2c1Nc1ccc(F)c(Cl)c1` [Example 224, 8-chloro-4-(3-chloro-4-fluorophenylamino)-6-((1-(morpholinosulfonylmethyl)-1H-1,2,3-triazol-4-yl)methylamino)quinoline-3-carbonitrile], for which the midpoint of inhibition, the IC50, lay at 280 nM.
`N#Cc1cnc2c(Br)cc(NCc3cccc[n+]3[O-])cc2c1Nc1ccc(F)c(Cl)c1` [Example 101, 8-bromo-4-(3-chloro-4-fluorophenylamino)-6-(1-oxypyridin-2-ylmethylamino)quinoline-3-carbonitrile] displayed an IC50 of 4.1 nM.
As for `N#Cc1cnc2ccc(NCc3ccc([N+](=O)[O-])o3)cc2c1Nc1ccc(F)c(Cl)c1` [Example 11, 4-(3-Chloro-4-fluoro-phenylamino)-6-[(5-nitro-furan-2-ylmethyl)-amino]-quinoline-3-carbonitrile], the IC50 was 123 nM.
For `CCCCc1ncc(CNc2cc(Br)c3ncc(C#N)c(Nc4ccc(F)c(Cl)c4)c3c2)[nH]1` [Example 107, 8-bromo-6-((2-butyl-1H-imidazol-5-yl)methylamino)-4-(3-chloro-4-fluorophenylamino)quinoline-3-carbonitrile], the IC50 worked out at 900 nM.
On to `N#Cc1cnc2ccc(NCc3ncc[nH]3)cc2c1Nc1ccc(F)c(Cl)c1` [Example 13, 4-(3-Chloro-4-fluoro-phenylamino)-6-[(1H-imidazol-2-ylmethyl)-amino]-quinoline-3-carbonitrile], for which inhibition was half-maximal at 30 nM (IC50). This IC50 is about 30-fold lower than that of the compound before.

The experiment is the same for the next values; noted with them: Table 2; Tpl2/Cot kinase, GST-MEK1 substrate, 50 uM ATP.
`CN(C)CC(c1ccccc1)n1cc(CNc2cc(Br)c3ncc(C#N)c(Nc4ccc(F)c(Cl)c4)c3c2)nn1` (stereo not drawn) [Example 575]: the midpoint of inhibition, the IC50, lay at 93 nM.
On the same count and under the same terms, for `N#Cc1cnc2c(Br)cc(NCc3cn(CCN4CCOCC4)cn3)cc2c1Nc1ccc(F)c(Cl)c1` [Example 488] the value was 41 nM.
In turn, `N#Cc1cnc2c(Cl)cc(NC3CCCC3n3cc(CCO)nn3)cc2c1Nc1ccc(F)c(Cl)c1` (stereo not drawn) [Example 635] had an IC50 of 67 nM.
Regarding `N#Cc1cnc2c(Br)cc(NCc3cn(CCS(=O)(=O)C4CCCC4)nn3)cc2c1Nc1ccc(F)c(Cl)c1` [Example 524], the IC50 turned out to be 53 nM. This IC50 and that of the compound before are within 1.5-fold of each other.
`N#Cc1cnc2c(Cl)cc(NCC(=O)O)cc2c1Nc1ccc(F)c(Cl)c1` [Example 465] displayed an IC50 of 51 nM.
In turn, `N#Cc1cnc2ccc(NCCN3CCOCC3)cc2c1NC1CCCC1` [Example 419] came in with an IC50 of 19700 nM.
Same read-out and setting: for `N#Cc1cnc2c(Br)cc(NCc3ccc(C(O)(C(F)(F)F)C(F)(F)F)cc3)cc2c1Nc1ccc(F)c(Cl)c1` [Example 428] the value was more than 40000 nM.
Same read-out and setting: for `N#Cc1cnc2c(Cl)cc(NCc3cn(CCCN4CCCNCC4)nn3)cc2c1Nc1ccc(F)c(Cl)c1` [Example 595] the value was 74 nM; for `CCN1CCC(Nc2ccc3ncc(C#N)c(Nc4ccc(F)c(Cl)c4)c3c2)C(C)C1` (stereo not drawn) [Example 377], more than 40000 nM.
The compound `CN1CCCN(CCCn2cc(CNc3cc(Cl)c4ncc(C#N)c(Nc5ccc(F)c(Cl)c5)c4c3)nn2)CC1` [Example 625] yielded an IC50 of 48 nM. This lies in the double-digit nanomolar range.

Still in this experiment, the particulars now being: Tpl2/Cot kinase, GST-MEK1 substrate, 50 uM ATP.
As to `N#Cc1cnc2c(Cl)cc(NCc3cn(Cc4cccc(C(F)(F)F)n4)nn3)cc2c1Nc1ccc(F)c(Cl)c1` [Example 882], half-maximal inhibition (IC50) required 270 nM.
For `CN(C)CCc1nc[nH]c1CNc1cc(Br)c2ncc(C#N)c(Nc3ccc(F)c(Cl)c3)c2c1` [Example 745], 240 nM corresponded to half-maximal inhibition (IC50). This IC50 and that of the compound before are within 1.5-fold of each other.
On the same count and under the same terms, for `N#Cc1cnc2c(Cl)cc(NCc3cn(CCN4CCOCC4)cn3)cc2c1Nc1ccc(F)c(Cl)c1` [Example 670] the value was 33 nM; for `N#Cc1cnc2c(Cl)cc(NCCNC(=O)Cc3cccnc3)cc2c1Nc1ccc(F)c(Cl)c1` [Example 862], more than 3000 nM; for `CC(=O)N1CCC[C@H]1Cn1cc(CNc2cc(Cl)c3ncc(C#N)c(Nc4ccc(F)c(Cl)c4)c3c2)nn1` [Example 901], 1 nM.
`CC(=O)Nc1ccc(-n2cc(CNc3cc(Cl)c4ncc(C#N)c(Nc5ccc(F)c(Cl)c5)c4c3)nn2)cc1` [Example 802] came in with an IC50 of 35 nM.
For `N#Cc1cnc2c(Cl)cc(NCc3cn(CC(=O)NCCN4CCOCC4)nn3)cc2c1Nc1ccc(F)c(Cl)c1` [Example 820], the IC50 is 14 nM.
Compound `CCN1CCC[C@@H]1Cn1cc(CNc2cc(Cl)c3ncc(C#N)c(Nc4ccc(F)c(Cl)c4)c3c2)nn1` [Example 892] gave an IC50 of 30 nM.
As for `CC(=O)NCCCn1cc(CNc2cc(Cl)c3ncc(C#N)c(Nc4ccc(F)c(Cl)c4)c3c2)nn1` [Example 910], the IC50 was 0.7 nM.
Same read-out and setting: for `N#Cc1cnc2c(Cl)cc(NCc3ccncc3)cc2c1Nc1ccc(F)c(Cl)c1` [Example 845] the value was 22 nM; for `N#Cc1cnc2c(Cl)cc(NCCNC(=O)Cc3ccncc3)cc2c1Nc1ccc(F)c(Cl)c1` [Example 863], 1040 nM; for `N#Cc1cnc2c(Cl)cc(NCc3cn(Cc4cncnc4)nn3)cc2c1Nc1ccc(F)c(Cl)c1` [Example 879], 1.1 nM.
`COCCOCCn1cc(CNc2cc(Cl)c3ncc(C#N)c(Nc4ccc(F)c(Cl)c4)c3c2)nn1` [Example 744] had an IC50 of 21 nM.

Staying with this experiment, now noted: Tpl2/Cot kinase, GST-MEK1 substrate, 50 uM ATP, 1 h at 30° C.; Table 2.
In turn, `N#Cc1cnc2c(Cl)cc(NCc3cn(CCc4cncc(C(O)(C(F)(F)F)C(F)(F)F)c4)nn3)cc2c1Nc1ccc(F)c(Cl)c1` [Example 1042] displayed an IC50 of 130 nM.
In turn, `N#Cc1cnc2c(Cl)cc(NCc3cn(C4CCCN(CC(F)F)CC4)nn3)cc2c1Nc1ccc(F)c(Cl)c1` (stereo not drawn) [Example 1010] displayed an IC50 of 310 nM.
With `N#Cc1cnc2c(Cl)cc(NCc3cn(C4CCN(CC(O)CO)CC4)nn3)cc2c1Nc1ccc(F)c(Cl)c1` (stereo not drawn) [Example 994], the IC50 amounted to 6.8 nM. This IC50 lies about 46-fold lower than the previous one.
`N#Cc1cnc2c(Cl)cc(NCc3cn(C4CCCN(CCF)CC4)nn3)cc2c1Nc1ccc(F)c(Cl)c1` (stereo not drawn) [Example 1011] gave an IC50 of 9.1 nM.
Same read-out and setting: for `CCCN1C2CCC1CC(n1cc(CNc3cc(Cl)c4ncc(C#N)c(Nc5ccc(F)c(Cl)c5)c4c3)nn1)C2` (stereo not drawn) [Example 1055] the value was 8 nM; for `CN(C)C(=O)N1CCC(n2cc(CNc3cc(Cl)c4ncc(C#N)c(Nc5ccc(F)c(Cl)c5)c4c3)nn2)CC1` [Example 929], 7 nM; for `CN1CCCC1CCn1cc(CNc2cc(Cl)c3ncc(C#N)c(NC4CCOCC4)c3c2)nn1` (stereo not drawn) [Example 952], 1130 nM.
The same measure, in the same setting: for `CN(C)CCn1cc(CNc2cc(Cl)c3ncc(C#N)c(NC4CCCCCC4)c3c2)nn1` [Example 950] the value was 620 nM.
